Earlier results in patent US12070523B2, “Sanitization of an article using in situ electrolysis” (APPLIED BIOCIDE GMBH, priority 2022, dated 2024).

[O-][Cl+2]([O-])O [chlorate]
ADI (allowable daily intake) (as ClO3^−): 0.0024 mg/kg BW·day | Maximum residue level (MRL), smallest MRL used as worst-case (chronic exposure, Commission Regulation (EU) 2020/749): 0.05 mg/kg BW·day
